Reference: patent publication US5849736A, “Isoxazoline and isoxazole fibrinogen receptor antagonists” (The DuPont Merck Pharmaceutical Company, priority 1995, dated 1998)
Counter-ions that a name gives are not always drawn.

System: platelet aggregation in human platelet rich plasma (PRP)
Experiment: Platelet Aggregation Assay (platelet rich plasma, with or without esterase pretreatment)
Format: cell-based
Settings: Platelet, preincubated with 100 IU/mL porcine liver esterase 2 hours at 37° C., 100 μM ADP, read-out: Platelet Aggregation Assay IC50 (with esterase)
Method: Venous blood was obtained from the arm of a healthy human donor who was drug-free and aspirin-free for at least two weeks prior to blood collection. Blood was collected into 10 mL citrated Vacutainer tubes. The blood was centrifuged for 15 minutes at 150×g at room temperature, and platelet-rich plasma (PRP) was removed. The remaining blood was centrifuged for 15 minutes at 1500×g at room temperature, and platelet-poor plasma (PPP) was removed. Samples were assayed on a aggregometer (PAP-4 Platelet Aggregation Profiler), using PPP as the blank (100% transmittance). 200 μL of PRP was added to each micro test tube, and transmittance was set to 0%. 20 μL of various agonists (ADP, collagen, arachidonate, epinephrine, thrombin) were added to each tube, and the aggregation profiles were plotted (% transmittance versus time). The results are expressed as % inhibition of agonist-induced platelet aggregation. For the IC50 evaluation, the test compounds were added at various concentrations prior to the activation of the platelets.
Ester prodrugs were preincubated (10^-3 M F.C.) with 100 IU/mL Porcine liver esterase (Sigma Chemical Co., St. Louis, Mo., #E-3128) for 2 hours at 37° C. Aliquots are then diluted in 0.1M Tris, pH 7.4, to the desired concentrations. Aliquots of 20 μl of the esterase pretreated prodrugs are added to 200 μl of human platelet rich plasma. Samples were placed in platelet profiler (aggregometer) for 8 minutes at 37° C., followed by the addition of 100 μM Adenosine Diphosphate, (Sigma Chemical Co., St. Louis, Mo., #A-6521), to induce platelet aggregation. Platelet aggregation was allowed to proceed for 5 minutes. Percent inhibition is calculated using percent aggregation in the presence of the test compound divided by percent aggregation of control, times 100. This value is subtracted from 100, yielding percent inhibition. Calculation of IC50 is performed on a Texas Instruments TI59 with an IC50 program.
Table A below sets forth the antiplatelet activity of representative compounds of the present invention. The indicated compounds were tested for their ability to inhibit platelet aggregation (using platelet rich plasma (PRP)). The IC50 value (the concentration of antagonist which inhibits platelet aggregation by 50% relative to a control lacking the antagonist) is shown. In Table 5 the IC50 values are expressed as: +++=IC50 of <10 μM; ++=IC50 of 10-50 μM; +=IC50 of 50-100 μM (μM=micromolar).

SMILES	IC50
COC(=O)CC(CSc1ccccc1)NC(=O)CC1CC(c2ccc(C(=N)N)cc2)=NO1 (racemic) [Example 350, Methyl 3(R,S)-N-(R,S)-{5-[3-(4-amidinophenyl)isoxazolin-5-ylacetyl]amino}-4-(phenylthio)butanoate hydrochloric acid salt]	< 10 µM
COC(=O)CC(CNS(=O)(=O)c1ccccc1)NC(=O)CC1CC(c2ccc(C(=N)N)cc2)=NO1 (racemic) [Example 359, Methyl 3(R,S) -{5(R,S)-N-[3-(4-amidinophenyl)isoxazolin-5-ylacetyl]amino}-4-(phenylsulfonamido)butanoate . trifluoroacetic acid salt]	< 10 µM
CCCCS(=O)(=O)NCC(CC(=O)OC)NC(=O)CC1CC(c2ccc(C(=N)N)cc2)=NO1 (racemic) [Example 362, Methyl 3(R,S)-{5(R,S)-N-[3-(4-amidinophenyl)isoxazolin-5-ylacetyl]amino}-4-(n-butylsulfonamido)butanoate . trifluoroacetic acid salt]	< 10 µM
COC(=O)CC(CC(=O)OC)NC(=O)CC1CC(c2ccc(C(=N)N)cc2)=NO1 (racemic) [Example 365, Methyl {5(R,S)-N-[3-(4-amidinophenyl)isoxazolin-5-ylacetyl]amino}-4-(methoxycarbonyl)butanoate . trifluoroacetic acid salt]	< 10 µM
COC(=O)CCC(CC(=O)OC)NC(=O)CC1CC(c2ccc(C(=N)N)cc2)=NO1 (racemic) [Example 368, trifluoroacetic acid salt]	< 10 µM
COC(=O)CC(NC(=O)CC1CC(c2ccc(C(=N)N)cc2)=NO1)c1ccccc1 (stereo not drawn) [Example 89]	< 10 µM
CCC(CC(=O)OC)NC(=O)CC1CC(c2ccc(C(=N)N)cc2)=NO1 (stereo not drawn) [Example 115]	< 10 µM
COC(=O)C[C@@H](CCc1ccccc1)NC(=O)CC1CC(c2ccc(C(=N)N)cc2)=NO1 (stereo partly drawn) [Example 120a, Methyl 3(R)-{5(R,S)-N-[3-(4-amidinophenyl)isoxazolin-5-ylacetyl]amino}-3-phenethylpropanoate]	< 10 µM
COC(=O)C[C@H](CCc1ccccc1)NC(=O)CC1CC(c2ccc(C(=N)N)cc2)=NO1 (stereo partly drawn) [Example 120b, Methyl 3(S)-{5(R,S)-N-[3-(4-amidinophenyl)isoxazolin-5-ylacetyl]amino}-3-phenethylpropanoate]	< 10 µM
CCOC(=O)CC(CN(C)C)NC(=O)CC1CC(c2ccc(C(=N)N)cc2)=NO1 (stereo not drawn) [Example 166]	< 10 µM
N=C(N)c1ccc(C2=NOC(CC(=O)NC[C@H](N)C(=O)O)C2)cc1 (stereo partly drawn) [Example 275, N^3-[3-(4-amidinophenyl)isoxazolin-5(R,S)-ylacetyl]-L-2,3-diaminopropionic acid TFA salt]	< 10 µM
N=C(N)c1ccc(C2=NOC(CC(=O)NC[C@H](NC(=O)OCc3ccccc3)C(=O)O)C2)cc1 (stereo partly drawn) [Example 276, N^2 -Cbz-N^3-[3-(4-amidinophenyl)isoxazolin-5(R, S) -ylacetyl]-L-2,3-diaminopropionic acid TFA salt]	< 10 µM
CCCCOC(=O)N[C@@H](CNC(=O)CC1CC(c2ccc(C(=N)N)cc2)=NO1)C(=O)O (stereo partly drawn) [Example 278, N^2-n-butyloxycarbonyl-N^3-[3-(4-amidinophenyl)isoxazolin-5(R, S)-ylacetyl]-L-2,3-diaminopropionic acid TFA salt]	< 10 µM
Cc1ccc(S(=O)(=O)NC(CNC(=O)CC2CC(c3ccc(C(=N)N)cc3)=NO2)C(=O)O)cc1 (stereo not drawn) [Example 300]	< 10 µM
COC(=O)C(CNC(=O)CC1CC(c2ccc(C(=N)N)cc2)=NO1)NC(=O)OCc1ccccc1 (stereo not drawn) [Example 312]	< 10 µM
CCCCOC(=O)N[C@@H](CNC(=O)C[C@@H]1CC(c2ccc(C(=N)N)cc2)=NO1)C(=O)OC [Example 314A, Methyl N^2-n-butyloxycarbonyl-N^3-[3-(4-amidinophenyl)isoxazolin-5(S)-ylacetyl]-(S)-2,3-diaminopropionate TFA salt]	< 10 µM
CCCCOC(=O)N[C@@H](CNC(=O)C[C@H]1CC(c2ccc(C(=N)N)cc2)=NO1)C(=O)OC [Example 314B, Methyl-N^2-n-butyloxycarbonyl-N^3-[3-(4-amidinophenyl)isoxazolin-5(R)-ylacetyl]-(S)-2,3-diaminopropionate TFA salt]	< 10 µM
COC(=O)C(CNC(=O)CC1CC(c2ccc(C(=N)N)cc2)=NO1)NS(C)(=O)=O (stereo not drawn) [Example 323]	< 10 µM

Same assay, conditions: Platelet, without esterase, given as a bound, not a class symbol, read-out: Platelet Aggregation Assay IC50 (without esterase)

SMILES	IC50
O=C(O)CC1CC(c2ccc(OCC3CCNCC3)cc2)=NO1 (racemic) [Example 7, 3-[4-(Piperidin-4-ylmethoxy)phenyl]-(5R,S)-isoxazolin-5-ylacetic Acid, Trifluoroacetic Acid Salt]	> 100 µM
COC(=O)C1(CC(=O)O)CC(c2ccc(OCCC3CCNCC3)cc2)=NO1 (racemic) [Example 33, Trifluoroacetic Acid Salt]	> 100 µM
O=C(O)CCN1C(=O)CC2(CC(CCC3CCNCC3)=NO2)C1=O (racemic) [Example 189, 5(R,S)-(2-Piperidin-4-ylethyl-8-(2-carboxyethyl)-1-oxa-2,8-diazaspiro[4.4]non-2-ene-7,9-dione]	> 100 µM

Same assay, conditions: Platelet, without esterase, read-out: Platelet Aggregation Assay IC50 (without esterase)

SMILES	IC50
O=C(O)CC1CC(c2ccc(OCCC3CCNCC3)cc2)=NO1 (racemic) [Example 1, 3-(4-[2-Piperidin-4-yl)ethoxy]phenyl]-(5R,S)-isoxazolin-5-ylacetic Acid, Trifluoroacetic Acid Salt]	< 10 µM
O=C(O)CCC1CC(c2ccc(OCC3CCNCC3)cc2)=NO1 (racemic) [Example 6, 3-(3-[4-(Piperidin-4-ylmethoxy)phenyl]-(5R,S)-isoxazolin-5-yl)propionic Acid, Trifluoroacetic Acid Salt]	< 10 µM
O=C(O)CCC1CC(c2ccc(OCCC3CCNCC3)cc2)=NO1 (racemic) [Example 8, 3-[4-(2-Piperidin-4-yl)ethoxyphenyl]-(5R,S) -isoxazolin-5-ylpropionic Acid, Trifluoroacetic Acid Salt]	50 to 100 µM
N=C(N)c1ccc(C2=NOC(CC(=O)NC(CC(=O)O)c3ccccc3)C2)cc1 (racemic) [Example 43, N-[3-(4-Amidinophenyl)isoxazolin-5(R,S)-ylacetyl]-(R,S)-3-amino-3-phenylpropanoic Acid]	< 10 µM
N=C(N)c1ccc(C2=NOC(CC(=O)N3CCCCCC3CC(=O)O)C2)cc1 (racemic) [Example 377, 2-(R,S)-2-Carboxymethyl-1-{5-(R,S)-N-[3-(4-amidinophenyl)isoxazolin-5-ylacetyl]}azepine]	< 10 µM
COC(=O)CC1C(=O)NCCN1C(=O)CC1CC(c2ccc(C(=N)N)cc2)=NO1 (racemic) [Example 400, 3-(R,S)-(Methoxy-2-oxoethyl)-4-{5-(R,S)-N-[3-(4-amidinophenyl)isoxazolin-5-ylacetyl]}piperazin-2-one]	< 10 µM
O=C(N[C@H](C(=O)O)C1CC(c2ccc(OCCC3CCNCC3)cc2)=NO1)OCc1ccccc1 (single isomer, unassigned) [4 (isomer A)]	10 to 50 µM
O=C(N[C@H](C(=O)O)C1CC(c2ccc(OCCC3CCNCC3)cc2)=NO1)OCc1ccccc1 (single isomer, unassigned) [4 (isomer B), Trifluoroacetic Acid Salt]	10 to 50 µM
CCCCS(=O)(=O)NC(CC1CC(c2ccc(OCC3CCNCC3)cc2)=NO1)C(=O)O (single isomer, unassigned) [9 (isomer A)]	< 10 µM
O=C(O)CCCN1C(=O)CC2(CC(CCC3CCNCC3)=NO2)C1=O (stereo not drawn) [Example 190]	50 to 100 µM

Same assay, conditions: preincubated with 100 IU/mL porcine liver esterase 2 hours at 37° C., 100 μM ADP, read-out: Platelet Aggregation Assay IC50 (with esterase)

SMILES	IC50
COC(=O)C[C@@H](Cc1ccccc1)NC(=O)CC1CC(c2ccc(C(=N)N)cc2)=NO1 (stereo partly drawn) [119A (3R)]	< 10 µM
COC(=O)C[C@H](Cc1ccccc1)NC(=O)CC1CC(c2ccc(C(=N)N)cc2)=NO1 (stereo partly drawn) [119B (3S)]	< 10 µM
COC(=O)C[C@@H](CCc1ccccc1)NC(=O)C[C@H]1CC(c2ccc(C(=N)N)cc2)=NO1 [120C (3R)]	< 10 µM
COC(=O)[C@H](CNC(=O)CC1CC(c2ccc(C(=N)N)cc2)=NO1)NS(=O)(=O)Cc1ccccc1 (stereo partly drawn) [328 (2S)]	< 10 µM

Same assay, conditions: without esterase, read-out: Platelet Aggregation Assay IC50 (without esterase)

SMILES	IC50
CCCCS(=O)(=O)NC(CC1CC(c2ccc(OCC3CCNCC3)cc2)=NO1)C(=O)O (single isomer, unassigned) [9 (isomer B), 3-(3-[4-{(Piperidin-4-yl)methoxy}phenyl]isoxazolin-5-yl{[butanesulfonyl]amino}]propionic Acid, Trifluoroacetic Acid Salt (Less Polar Diastereomer)]	< 10 µM
